Data as given in paper PMC12320299 (Chemical Science, 2025).

Key:
CT26 colon carcinoma = test: Anti-tumour activity in subcutaneous CT26 allografts; format: in vivo, BALB/c mice; conditions: for tumour growth compared to vehicle-treated controls: i.p. over two weeks, 10 mg kg^−1 (1a, 2a), 30 mg kg^−1 (1b, 2b)
Procedure: Tumour inhibition of the four compounds was evaluated in subcutaneous CT26 allografts using BALB/c mice, since it represents an appropriate immune competent mouse model to study colon carcinoma. The compounds were administered intraperitoneally (i.p.) over two weeks at doses of 10 mg kg^−1 for the 3-Et-NQ complexes and 30 mg kg^−1 for the 3-Morph-NQ complexes. The different dosages were selected as maximal tolerable doses (MTDs) after an initial toxicity screen (data not shown).
Animals. All experiments were carried out with male Balb/c mice according to the regulation of the Ethics Committee for the Care and Use of Laboratory Animals at the Medical University Vienna (BMWF-2022-0.770.291), the guidelines from the Austrian Animal Science Association and the Federation of European Laboratory Animal Science Associations (FELASA). The animals were kept in a pathogen-free conditions, controlled environment with 12 h light–dark cycle with ad libitum access to food and water. Every procedure was done in a laminar airflow […]
Treatment. CT-26 cells ([…] in 50 μL serum-free medium) were injected subcutaneously (s.c.) into the right flank of ten– to eleven-week-old male Balb/c mice. Three days after cell injection, all compounds (dissolved in 10% DMSO in water) were administered […]
1b/2b. Regarding anticancer activity experiments, mice were treated on 5 consecutive days […]
over 2 weeks. […]

[1] = Stability in aqueous solution by ESI-MS; format: physicochemical; conditions: 50 μM, share of total intensity
Procedure: In order to elucidate the transformation products of hydrolysis at micromolar concentrations, the four compounds were analogously incubated at 50 μM and analysed by ESI-MS[34] in a time-dependent manner after 1.5 h, 24 h and 72 h. The four complexes of this series were quite stable over 24 h (ESI, Fig. S12 ^†), but gradually released the NQ-ligands over the course of 72 h, which was observed by the formation of characteristic metal(cymene)-dimers containing pyrazole as bridging ligands. In addition, the observation of the free 3-Morph-NQ ligand after 24 h further supported the previously established activation mechanism (ESI, Fig. S12 ^†). A mass signal, which was probably generated by in-source fragmentation corresponded to pyrazole-release. […] In general, the intensity of the intact compounds after 24 h at 50 μM corresponded to approximately 40% of the total intensity of the mass spectrum in all four cases, not accounting for ionization efficiency (Fig. 2B).
Stability Study by UV-Vis Spectroscopy […]
80 µM. The stability of the compounds was monitored in a UV-Vis spectrophotometer (Perkin Elmer lambda 35 photometer) over 96 h by acquiring an UV-Vis spectrum every 30 mins. The percentage of the remaining intact compound was calculated by the ratio of the maximum absorbance of the tridentate complexes’ characteristic absorption band around 350– 370 nm after a given timepoint (A) compared to the one directly after dilution (A0). […]
Samples were diluted to a concentration of 2.5 µM with an organic eluent (49.5% v/v acetonitrile, 49.5% v/v methanol,1% v/v H2O), except ubiquitin containing samples which were diluted to the same concentration with acidified H2O (0.1% v/v formic acid). The samples were then analysed by flow-injection using an amazon speed ETD ion trap (Bruker Daltonics) in the positive ion mode over 0.4 min using the following experimental parameters: HV capillary ±4.5 kV, end plate offset –500 V, dry temp 180 °C, nebulizer 3 bar, dry gas 5 L min-1, scan range m/z 200–1400, target mass m/z 900, flow rate 5 µL min-1. […]

| SMILES | tumour growth compared to vehicle-treated controls (CT26 colon carcinoma) | Intact compound after 24 h, aqueous medium [1] [%] | reduction in tumour volume on day 13 (CT26 colon carcinoma; 10 mg kg^−1 i.p. over two weeks, vs vehicle) [%] | tumour inhibition, 1-week experiment (CT26 colon carcinoma; 10 mg kg^−1 i.p., five consecutive days) |
| --- | --- | --- | --- | --- |
| Cc1ccc(C(C)C)cc1.O=C1C(CN2CCOCC2)=C2[O][Ru][O]C2(n2cccn2)c2ccccc21 (centres unmarked) [Compound 1b] | inactive | 47 |  |  |
| CCC1=C2[O][Ru][O]C2(n2cccn2)c2ccccc2C1=O.Cc1ccc(C(C)C)cc1 (centres unmarked) [Compound 1a, [(3-ethyl-4-oxo-(pyrazolyl)-dihydronaphthalene)(cymene)ruthenium(II)]] | significantly inhibit tumour growth | 42 | 44 | statistically significant tumour inhibition |
| CCC1=C2[O][Os][O]C2(n2cccn2)c2ccccc2C1=O.Cc1ccc(C(C)C)cc1 (centres unmarked) [Compound 2a] | significantly inhibit tumour growth | 45 |  |  |
